≈ marks a conversion by molar mass, not a printed value.
Assays:
[1] = tested on: mean systemic arterial blood pressure (BP); experiment: Cardiovascular actions in rats: fall in blood pressure and duration of the hypotensive effect; type: in vivo, male Wistar rats; conditions: for Fall in BP Relative Potency PGE1 / Fall in BP Relative Potency PGI2: anaesthetized rat, i.v. injection; for Fall in BP Relative Potency PGE1: potency ratio against PGE1; for Fall in BP Relative Potency PGI2: potency ratio against PGI2; for Duration t½: time from peak hypotensive response to recovery to half its peak, rat i.v.
Protocol: Anaesthesia was induced in male Wistar rats (250-300 g body weight) with sodium pentobarbitone (30 mg kg^-1, i.v.) and supplemented (3 mg kg^-1) when required. Arterial pressure was recorded from a cannulated femoral artery and heart rate derived from the arterial pulse. Rectal temperature was maintained at 37°C by thermistor-controlled radiant heat. Each compound was injected into a femoral vein in a volume of 0.25 ml and flushed in with 0.2 ml of saline (0.9% w/v). Dose-response relationships for the fall in mean systemic arterial blood pressure (BP) with the hydantoins were constructed and compared to those obtained with PGI2 and PGE, in the same animal, and a potency ratio calculated. […] Figures for Compound X and PGI2 are listed for comparison.

platelet aggregation = experiment: Inhibition of platelet aggregation in human platelet-rich plasma (Born-type aggregometer, ADP or other aggregating agent); type: cell-based; conditions: for IC50: Homo sapiens, Platelet, 1 min, 1 min incubation at 37°C before aggregating agent, read-out: IC50; for IC50 / Potency relative to PGI2: human PRP; for Potency relative to PGI2: 1 min incubation, PGI2 = 1; for Increase on Incubation (min) 5: increase in potency after 5 min incubation in PRP; for Increase on Incubation (min) 10: increase in potency after 10 min incubation in PRP
Protocol: Human blood was freshly collected into siliconized (Siloclad; Clay Adams) plastic (Sterilin Ltd.) vessels containing trisodium citrate (3.15%; 0.1 volume with 0.9 volume blood) and centrifuged (200 g for 15 min) at room temperature. The platelet-rich plasma (PRP) was withdrawn into plastic containers and kept at room temperature. Inhibition of […] prior to addition of sufficient adenosine diphosphate (ADP) or other aggregating agent to just cause a non-reversing control aggregation. Dose-inhibition curves were constructed for each compound and the ID50 (dose causing 50% inhibition) was calculated as the dose required to reduce the aggregation to 50% of its control amplitude. […] For comparison, also given are the results upon administration of 5-(6-carboxyhexyl)-1-(3-cyclohexyl-3-hydroxypropyl)hydantoin (Compound X) which is disclosed in UK Specification 1,595,694. -
In this and subsequent biological examples, where a compound number refers to a single diastereoisomer, a mixture of diastereoisomers is indicated by two compound numbers separated by /.

[2] = tested on: rabbit platelet aggregation; experiment: Ex vivo rabbit platelet aggregation after i.v. infusion of the hydantoin (ADP 20 µM); type: in vivo, rabbits; conditions: i.v. infusion for 15 min, blood sample 10 min after start of infusion
Protocol: Male rabbits (2-2.5 kg body weight) were anaesthetized with sodium pentobarbitone (30 mg/kg, i.v. followed by maintenance doses of 3mg/kg) and systemic arterial blood pressure (BP) was recorded from a cannula filled with
heparinized saline (5 units/ml) in a carotid artery; no heparin was administered to the animal. Hydantoins were administered via a cannula in a femoral vein. Blood samples (1.5 ml) were slowly collected into a plastic syringe containing tri-sodium citrate (3.18%, 0.15 ml) from a cannula inserted into a femoral artery, shaken gently and transferred to an Eppendorf plastic tube and spun in a modified Eppendorf centrifuge for 2 sec (Model 5412, maximum centrifugal force 10,000 x g). The PRP was collected and a 0.35 ml aliquot was transferred to the aggregometer and incubated at 37°C for 1 minute prior to addition of sufficient ADP (20 µM) to produce near-maximal aggregation. The time-interval between removal of blood samples and the transference of the PRP to the aggregometer was less than 1.5 min.
Blood samples were removed at 10 min. intervals once the BP of the rabbit had reached steady resting levels, 10-20 min. following the preparative surgical procedures. After three control blood samples had been prepared and the control aggregation of the platelets measured, the hydantoin was infused intravenously for 15 min from a Braun slow-infusion apparatus. Blood samples were collected 10 min after the start of the infusion. Two further 10 min. samples post-infusion were collected prior to commencing further infusions.
The following results list values of ED50 and change in blood pressure. For comparison, also given are the results obtained upon administration of PGIZ and Compound X.

B.P. = experiment: Cardiovascular studies in the dog: vasodepressor potency and duration; type: in vivo, Dogs; conditions: i.v. bolus
Protocol: Dogs (10-15 kg body weight) were anaesthetized with chloralose (80 mg/kg i.v.) and maintained with subcutaneous injections of pentobarbitone (3 mg/kg). Drugs were administered via a femoral vein by bolus injection and B.P. was recorded from the right femoral artery. Results give vasodepressor potency and t1 2 duration. Figures for Compound X are provided for comparison.

[3] = tested on: acid-ethanol induced gastric lesions; experiment: Inhibition of acid-ethanol induced gastric lesions in rats (cytoprotection); type: in vivo; conditions: rat, oral
Protocol: The inhibition of acid-ethanol induced gastric lesions in rats (cytoprotection) was measured for various doses of orally administered hydantoin. Figures for compound X are given for comparison.

[4] = tested on: systemic arterial blood pressure (BP); experiment: Concurrent change in systemic arterial blood pressure in anaesthetized rabbits; type: in vivo; conditions: for Δ BP: anaesthetized rabbit, i.v. infusion, at the ED50 dose; for blood pressure depressant activity: at the ED50 doses, rabbit, stated in words
Protocol: Male rabbits (2-2.5 kg body weight) were anaesthetized with sodium pentobarbitone (30 mg/kg, i.v. followed by maintenance doses of 3mg/kg) and systemic arterial blood pressure (BP) was recorded from a cannula filled with heparinized saline (5 units/ml) in a carotid artery; no heparin was administered to the animal. Hydantoins were administered via a cannula in a femoral vein. Blood samples (1.5 ml) were slowly collected into a plastic syringe containing tri-sodium citrate (3.18%, 0.15 ml) from a cannula inserted into a femoral artery, shaken gently and transferred to an Eppendorf plastic tube and spun in a modified Eppendorf centrifuge for 2 sec (Model 5412, maximum centrifugal force 10,000 x g). The PRP was collected and a 0.35 ml aliquot was transferred to the aggregometer and incubated at 37°C for 1 minute prior to addition of sufficient ADP (20 µM) to produce near-maximal aggregation. The time-interval between removal of blood samples and the transference of the PRP to the aggregometer was less than 1.5 min. […] After three control blood samples had been prepared and the control aggregation of the platelets measured, the hydantoin was infused intravenously for 15 min from a Braun slow-infusion apparatus. Blood samples were collected 10 min after the start of the infusion. Two further 10 min. samples post-infusion were collected prior to commencing further infusions. The following results list values of ED50 and change in blood pressure. For comparison, also given are the results obtained upon administration of PGIZ and Compound X.

[5] = Dose 1.25 ug kg^-1, duration of vasodepressor effect

IC50 (platelet aggregation) [ng/mL]	Increase on Incubation (min) 5 (platelet aggregation)	Increase on Incubation (min) 10 (platelet aggregation)	SMILES	Fall in BP Relative Potency PGE1 [1]	Fall in BP Relative Potency PGI2 [1]	Duration t½ [1] [min]	Potency relative to PGI2 (platelet aggregation)	ED50 [2] [µg/kg/min]	Δ BP (B.P.; Dose 0.625 ug kg^-1) [mm Hg]	t1/2 (B.P.; Dose 0.625 ug kg^-1, duration of vasodepressor effect) [min]	Δ BP (B.P.; Dose 1.25 ug kg^-1) [mm Hg]	t1/2 (B.P.; [5]) [min]	% inhibition ([3]; Dose 10 μg kg^-1) [%]	% inhibition ([3]; Dose 25 μg kg^-1) [%]	% inhibition ([3]; Dose 50 μg kg^-1) [%]	Δ BP [4] [mmHg]	blood pressure depressant activity [4]	Δ BP (B.P.; Dose 2.5 ug kg^-1) [mm Hg]	t1/2 (B.P.; Dose 2.5 ug kg^-1, duration of vasodepressor effect) [min]	% inhibition ([3]; Dose 5 μg kg^-1) [%]
2 (≈ 5.44 nM)	x5	x20	O=C(O)CCCCCCC1C(=O)NC(=O)N1N=CC(O)C1CCCCC1 (single isomer, unassigned) [Compound No. 6, 5-(6-carboxyhe-xyl)-1-(2-cyclohexyl-2-hydroxyethylideneamino)hydantoin]	0.5	0.041	17.0	0.30	0.15	-54	60	-65	>60	31 ± 20	50 ± 21	69 ± 8	0	no significant blood pressure depressant activity			
16 (≈ 43.5 nM)	x7	x20	O=C(O)CCCCCCC1C(=O)NC(=O)N1N=CC(O)C1CCCCC1 (stereo not shown) [Compound No. 3, 5-(6-carboxyhexyl)-1-(2-cyclohexyl-2-hydroxy-ethylideneamino)hydantoin]	0.324	0.027	11.0	0.02	2.0								0	no significant blood pressure depressant activity			
1.5 (≈ 4.07 nM)	x2	x3	O=C(O)CCCCCCC1C(=O)NC(=O)N1CCC(O)C1CCCCC1 (stereo not shown) [Compound X, 5-(6-carboxyhexyl)-1-(3-cyclohexyl-3-hydroxypropyl)hydantoin, reference compound]	0.72	0.06	4.0	0.21	3.3			-45	2.8	80 ± 9	89 ± 6		-5		-56	6.2	46 ± 26
